Data taken from patent publication US20200131669A1, “CYCLIC PEPTIDE COMPOUND HAVING HIGH MEMBRANE PERMEABILITY, AND LIBRARY CONTAINING SAME” (Chugai Seiyaku Kabushiki Kaisha, priority 2017, published 2020).
Starred links: 1 amine or outer side, 2 acyl side, 3 side chain; linkers in the order of their positions; H or OH if unused. Positions of bridges follow the written chain, without caps; N, C: chain ends. Non-standard residues stand in square brackets, D forms with d. Residues, ends and D or L forms follow the SMILES beside them. ξ: configuration not given here. *: point of attachment. Glu(NHSO2Me) = CS(=O)(=O)NC(=O)CC[C@H](N)C(=O)O; Phe(4-CF3) = N[C@@H](Cc1ccc(C(F)(F)F)cc1)C(=O)O; NMePhe(3-Cl) = CN[C@@H](Cc1cccc(Cl)c1)C(=O)O; Ala(4-thiazolyl) = N[C@@H](Cc1cscn1)C(=O)O; hPhe(4-Cl) = N[C@@H](CCc1ccc(Cl)cc1)C(=O)O; hNle(7,7-F2) = N[C@@H](CCCCC(F)F)C(=O)O; NMehPhe = CN[C@@H](CCc1ccccc1)C(=O)O; Ethyl(2-morpholino) = C1CN(CC*)CCO1; Gly(N-(CH2)2OEt) = CCOCCNCC(=O)O; Hyp = O=C(O)[C@@H]1C[C@@H](O)CN1; NMeF = CN[C@@H](Cc1ccccc1)C(=O)O; NMeGABA = CN(CCCC(=O)[*:2])[*:1]; NMeI = CC[C@H](C)[C@H](NC)C(=O)O; NMeL = CN[C@@H](CC(C)C)C(=O)O; Propyl(2R-OH) = C[C@@H](O)C*; ξNMeF = CNC(Cc1ccccc1)C(=O)O; NMeV = CN[C@H](C(=O)O)C(C)C; NMeAbu = CC[C@H](NC)C(=O)O; NPentylGly = CCCCCNCC(=O)O; Pip = O=C(O)[C@@H]1CCCCN1; NMeA = CN[C@@H](C)C(=O)O; Piperidide = C1CCN(*)CC1; dNMeA = CN[C@H](C)C(=O)O; Me2NCH2CH2 = CN(C)CC*; NBuGly = CCCCNCC(=O)O; X2 = Fc1cncc(C*)c1; Sar = CNCC(=O)O; tBu = CC(C)(C)*; CHF2 = FC(F)*

assay: Caco-2 membrane permeability, improved method as used in the following Examples (96-well, 20 to 24 h preincubation); type: in vitro ADME; conditions: Caco-2, Caco-2
Procedure, shortened: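 Papp (cm/sec) was derived from LC/MS of basal samples collected 180 min after apical dosing in FaSSIF/HBSS pH 6.0 with 1% DMSO, against a basal HBSS pH 7.4 receiver containing 4% BSA. Three-week Caco-2 cultures were first preincubated with compound in DMEM+FaSSIF at 37 °C for 20–24 h.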

Structure (SMILES) | Papp A→B [×10⁻⁶ cm/s]
CC(C)C[C@@H]1NC(=O)[C@H](CC(C)C)N(C)C(=O)C[C@@H](C(=O)N2CCCCC2)NC(=O)[C@H](CC(C)C)N(C)C(=O)CN(C)C(=O)[C@H](CCC(=O)N(C)C)NC(=O)[C@H](CC(C)C)N(C)C(=O)[C@H](Cc2ccccc2)N(C)C(=O)[C@H](CC(C)C)NC(=O)[C@H](Cc2ccccc2)N(C)C(=O)[C@H](CC(C)C)N(C)C1=O [pd439] ([NMeL]L[NMeL][NMeF]L[NMeF][NMeL]E(NMe2)[Sar][NMeL]D-Piperidide; lactam N-11) | 1

same assay, conditions: human, Caco-2, Caco-2

Structure (SMILES) | Papp A→B at 180 min [×10⁻⁶ cm/s]
CCCCN1CC(=O)N(C)[C@@H](Cc2ccccc2)C(=O)N(C)[C@@H](CC(C)C)C(=O)N[C@@H](COC(C)(C)C)C(=O)N(C)[C@@H](CC(C)C)C(=O)N[C@H](C(=O)N2CCCCC2)CC(=O)N(C)CC(=O)N(C)[C@@H](Cc2cccc(Cl)c2)C(=O)N[C@@H](COC[C@@H](C)O)C(=O)N(C)[C@@H](CC(C)C)C(=O)N[C@@H]([C@@H](C)O)C1=O [pd490] ([Sar][NMePhe(3-Cl)]S(Propyl(2R-OH))[NMeL]T[NBuGly][NMeF][NMeL]S(tBu)[NMeL]D-Piperidide; lactam N-11) | 1
CC[C@H](C)[C@@H]1NC(=O)[C@H](CC(C)C)N(C)C(=O)CCCN(C)C(=O)C[C@@H](C(=O)N2CCCCC2)NC(=O)[C@H](CC(C)C)N(C)C(=O)[C@H](C)N(C)C(=O)[C@H]([C@@H](C)O)NC(=O)[C@H](CC(C)C)N(C)C(=O)[C@H](CCCCC(F)F)NC(=O)[C@H](Cc2ccccc2)N(C)C(=O)[C@H](Cc2ccccc2)N(C)C1=O [pd333] ([NMeGABA][NMeL]I[NMeF][NMeF][hNle(7,7-F2)][NMeL]T[NMeA][NMeL]D-Piperidide; lactam N-11) | 1.3
CCOCCN1CC(=O)N(C)[C@@H](Cc2ccccc2)C(=O)N(C)[C@@H](CC(C)C)C(=O)N[C@@H](COC(C)(C)C)C(=O)N(C)[C@@H](CC(C)C)C(=O)N[C@H](C(=O)N2CCCCC2)CC(=O)N(C)CC(=O)N(C)[C@@H](Cc2ccccc2)C(=O)N[C@@H](C(C)C)C(=O)N(C)[C@@H](CC(C)C)C(=O)N[C@@H]([C@@H](C)O)C1=O [pd418] ([Sar][NMeF]V[NMeL]T[Gly(N-(CH2)2OEt)][NMeF][NMeL]S(tBu)[NMeL]D-Piperidide; lactam N-11) | 1.5
CC[C@H](C)[C@H]1C(=O)N[C@@H]([C@@H](C)O)C(=O)N(C)CC(=O)N(C)[C@@H](CC(C)C)C(=O)N[C@@H](C(=O)N2CCCCC2)CC(=O)N(C)[C@@H](C)C(=O)N[C@@H](CC(C)C)C(=O)N(C)[C@@H](CC(C)C)C(=O)N(C)[C@@H](CC(C)C)C(=O)N[C@@H](Cc2ccc(OC(F)F)cc2)C(=O)N(C)[C@@H](C)C(=O)N1C [pd480] ([NMeA]L[NMeL][NMeL]Y(CHF2)[NMeA][NMeI]T[Sar][NMeL][dD]-Piperidide; lactam N-11) | 5
CC(C)C[C@@H]1NC(=O)[C@H](C)N(C)C(=O)C[C@@H](C(=O)N2CCCCC2)NC(=O)[C@H](CC(C)C)N(C)C(=O)CN(C)C(=O)[C@H]([C@@H](C)O)NC(=O)[C@H](CC(C)C)N(C)C(=O)[C@H](CCc2ccccc2)N(C)C(=O)[C@H](CC(C)C)NC(=O)[C@H](Cc2ccccc2)N(C)C(=O)[C@H](CC(C)C)N(C)C1=O [pd323] ([NMeA]L[NMeL][NMeF]L[NMehPhe][NMeL]T[Sar][NMeL]D-Piperidide; lactam N-11) | 2.3
CCCCCN1CC(=O)N(C)[C@@H](Cc2ccccc2)C(=O)N(C)[C@@H](CC(C)C)C(=O)N[C@@H](COC(C)(C)C)C(=O)N(C)[C@@H](CC(C)C)C(=O)N[C@H](C(=O)N2CCCCC2)CC(=O)N(C)CC(=O)N(C)[C@@H](Cc2ccccc2)C(=O)N[C@@H](C(C)C)C(=O)N(C)[C@@H](C)C(=O)N[C@@H]([C@@H](C)O)C1=O [pd404] ([Sar][NMeF]V[NMeA]T[NPentylGly][NMeF][NMeL]S(tBu)[NMeL]D-Piperidide; lactam N-11) | 1.3
CC[C@H](C)[C@@H]1NC(=O)[C@H](CC(C)C)N(C)C(=O)CCCN(C)C(=O)C[C@@H](C(=O)N2CCCCC2)NC(=O)[C@H](CC(C)C)N(C)C(=O)[C@H](CC(C)C)N(C)C(=O)[C@H](COCCN2CCOCC2)NC(=O)[C@H](CC(C)C)N(C)C(=O)[C@H](COC(C)(C)C)NC(=O)[C@H](CC)N(C)C(=O)[C@H](Cc2ccccc2)N(C)C1=O [pd485] ([NMeGABA][NMeL]I[NMeF][NMeAbu]S(tBu)[NMeL]S(Ethyl(2-morpholino))[NMeL][NMeL]D-Piperidide; lactam N-11) | 1.2
CC(C)C[C@H]1C(=O)N[C@@H](COC(C)(C)C)C(=O)N(C)[C@@H](Cc2ccccc2)C(=O)N(C)[C@@H](C(C)C)C(=O)N[C@H](C(=O)N2CCCCC2)CC(=O)N[C@H](C(C)C)C(=O)N(C)[C@@H](CC(C)C)C(=O)N[C@@H](COc2ccccc2Cl)C(=O)N(C)[C@@H](C)C(=O)N[C@@H]([C@@H](C)O)C(=O)N(C)CC(=O)N1C [pd339] | 2.6
CCCCN1CC(=O)N(C)[C@@H](CC(C)C)C(=O)N[C@@H](CCC(=O)NS(C)(=O)=O)C(=O)N(C)[C@@H](Cc2cccc(Cl)c2)C(=O)N(C)[C@@H](C(C)C)C(=O)N[C@H](C(=O)N2CCCCC2)CC(=O)N[C@H](CC(C)C)C(=O)N(C)[C@@H](Cc2cccc(Cl)c2)C(=O)N[C@@H](CC(C)C)C(=O)N(C)[C@@H](CC)C(=O)N[C@@H]([C@@H](C)O)C1=O [pd61] ([dL][NMePhe(3-Cl)]L[NMeAbu]T[NBuGly][NMeL][Glu(NHSO2Me)][NMePhe(3-Cl)][NMeV]D-Piperidide; lactam N-11) | < 0.094
CCO[C@@H]1C[C@H]2C(=O)N(C)[C@@H](CC(C)C)C(=O)N[C@@H]([C@@H](C)O)C(=O)N(C)[C@@H](CC(C)C)C(=O)N(C)[C@@H](C(C)C)C(=O)N[C@@H](Cc3ccc(C(F)(F)F)cc3)C(=O)N3CCCC[C@H]3C(=O)N[C@@H](CC(C)C)C(=O)N[C@H](C(=O)N3CCCCC3)CC(=O)N(C)[C@H](C)C(=O)N(C)[C@@H](CC(C)C)C(=O)N2C1 [pd377] ([dNMeA][NMeL][Hyp](Et)[NMeL]T[NMeL][NMeV][Phe(4-CF3)][Pip]LD-Piperidide; lactam N-11) | 1.4
CC(C)C[C@@H]1NC(=O)[C@H](CC(C)C)N(C)C(=O)CN(C)C(=O)[C@H]([C@@H](C)O)NC(=O)[C@H](CC(C)C)N(C)C(=O)[C@H](CCc2ccc(Cl)cc2)NC(=O)[C@H](C)N(C)C(=O)[C@@H](C(C)C)NC(=O)C[C@@H](C(=O)N2CCCCC2)NC(=O)[C@H](C(C)C)N(C)C(=O)[C@H](Cc2ccccc2)N(C)C1=O [pd360] ([dV][NMeA][hPhe(4-Cl)][NMeL]T[Sar][NMeL]L[NMeF][NMeV]D-Piperidide; lactam N-11) | 1.6

same assay, conditions: human, Caco-2, Caco-2 (cm/sec)

Structure (SMILES) | Papp A→B at 180 min [×10⁻⁶ cm/s]
CC(C)C[C@H]1C(=O)N[C@@H](COC(C)(C)C)C(=O)N(C)[C@@H](Cc2ccccc2)C(=O)N(C)[C@@H](CC(C)C)C(=O)N[C@H](C(=O)N2CCCCC2)CC(=O)N[C@H](C(C)C)C(=O)N(C)[C@@H](Cc2ccccc2)C(=O)N[C@@H](C(C)C)C(=O)N(C)[C@@H](Cc2ccccc2)C(=O)N[C@@H]([C@@H](C)O)C(=O)N(C)CC(=O)N1C [pd210] ([dV][NMeF]V[NMeF]T[Sar][NMeL]S(tBu)[NMeF][NMeL]D-Piperidide; lactam N-11) | 1.6
CC(C)C[C@H]1C(=O)N[C@@H](COC(C)(C)C)C(=O)N(C)[C@@H](Cc2ccccc2)C(=O)N(C)[C@@H](C(C)C)C(=O)N[C@H](C(=O)N2CCCCC2)CC(=O)N[C@H](C(C)C)C(=O)N(C)C(Cc2ccccc2)C(=O)N[C@@H](COCc2cncc(F)c2)C(=O)N(C)[C@@H](CC(C)C)C(=O)N[C@@H]([C@@H](C)O)C(=O)N(C)CC(=O)N1C (stereo partly drawn) [pd180] ([dV][ξNMeF]S(X2)[NMeL]T[Sar][NMeL]S(tBu)[NMeF][NMeV]D-Piperidide; lactam N-11) | 2.4
CC(C)C[C@H]1C(=O)N(C)[C@@H](Cc2ccccc2)C(=O)N(C)[C@@H](Cc2ccccc2)C(=O)N[C@@H]([C@@H](C)O)C(=O)N(C)[C@@H](C)C(=O)N(C)[C@@H](Cc2ccccc2)C(=O)N[C@H](C(=O)N2CCCCC2)CC(=O)N(C)[C@@H](C)C(=O)N(C)[C@@H](CC(C)C)C(=O)N(C)[C@@H](Cc2ccccc2)C(=O)N[C@@H](C)C(=O)N1C [pd232] ([NMeA][NMeL][NMeF]A[NMeL][NMeF][NMeF]T[NMeA][NMeF]D-Piperidide; lactam N-11) | 0.19
CC(C)C[C@H]1C(=O)N[C@@H]([C@@H](C)O)C(=O)N2CCC[C@H]2C(=O)N(C)[C@@H](C)C(=O)N[C@@H](Cc2ccc(C(F)(F)F)cc2)C(=O)N(C)[C@@H](CC(C)C)C(=O)N(C)[C@@H](CC(C)C)C(=O)N[C@H](C(=O)N2CCCCC2)CC(=O)N1C [pd136] ([NMeL]TP[NMeA][Phe(4-CF3)][NMeL][NMeL]D-Piperidide; lactam N-8) | 1.6
CC(C)C[C@@H]1NC(=O)[C@H](CC(C)C)N(C)C(=O)[C@H](CC(C)C)N(C)C(=O)CNC(=O)[C@H](Cc2ccccc2)N(C)C(=O)[C@H](Cc2cscn2)NC(=O)[C@H](CC(C)C)N(C)C(=O)[C@H](Cc2ccccc2)NC(=O)[C@H](C)NC(=O)C[C@@H](C(=O)N(C)[C@@H](Cc2ccccc2)C(=O)N[C@@H](C)C(=O)N2CCCCC2)NC1=O [pd235] (AF[NMeL][Ala(4-thiazolyl)][NMeF]G[NMeL][NMeL]LD[NMeF]A-Piperidide; lactam N-10) | 0.1

same assay, conditions: human; Papp; Table 25, cyclic peptides containing Ser(Et-2-NMe2) or Gln(Ms), not in table head; read-out: Caco-2

Structure (SMILES) | Papp A→B at 180 min [×10⁻⁶ cm/s]
CC(C)C[C@@H]1NC(=O)[C@H](Cc2ccccc2)N(C)C(=O)[C@H](Cc2ccccc2)N(C)C(=O)[C@H](COCCN(C)C)NC(=O)[C@H](CC(C)C)N(C)C(=O)CCCN(C)C(=O)C[C@@H](C(=O)N2CCCCC2)NC(=O)[C@H](CC(C)C)N(C)C(=O)[C@H](CC(C)C)N(C)C(=O)[C@H]([C@@H](C)O)NC(=O)[C@H](CC(C)C)N(C)C1=O [pd55] ([NMeGABA][NMeL]S(Me2NCH2CH2)[NMeF][NMeF]L[NMeL]T[NMeL][NMeL]D-Piperidide; lactam N-11) | 0.1
